These results are taken from patent publication US12661338B2, “Heterocyclic compounds as modulators of beta-catenin / TCF4 interaction” (AGENCY FOR SCIENCE, TECHNOLOGY AND RESEARCH, priority 2019, dated 2026).

The subject of assay [1] is β-cat-ECAD interaction. Description: Co-immunoprecipitation of β-cat and ECAD in HCT116 cells. Type of assay: cell-based. The settings on record: 18 hr. How it is done:
HCT116 cells were treated for 18 hr with compounds at the indicated concentrations. Cells were lysed on ice in lysis buffer containing 20 mM HEPES, pH 7.5, 137 mM NaCl, 1.5 mM MgCl2, 1 mM EGTA, 1 mM dithiothreitol (DTT), 1% Triton X-100, 10% glycerol, cOmplete protease inhibitor cocktail (Roche cat. #11697498001), and 1 mM Na3VO4. Each sample of cleared protein lysate was incubated overnight at 4° C. with 4 μg anti-β-cat antibody (Sigma cat. #C7207) followed by 1 hr incubation with a 50 μL slurry of Dynabeads Protein G (Invitrogen cat. #10004D) at 4° C. The beads were then washed three times with lysis buffer at 4° C., and the bound protein was eluted by heating the beads with 30 μL (per sample) of SDS sample buffer at 95° C. for 7 min. protein was resolved by SDS-PAGE and blotted onto PVDF membrane (Millipore cat. #IPVH00010). Primary antibodies were incubated overnight at 4° C. and the blots were detected with either IRDye 800CW goat anti-rabbit antibody (LI-COR cat. #926-32211) or IRDye 680RD goat anti-mouse antibody (LI-COR cat. #926-68070) at 1:5000 dilution. Signals were visualized with the LI-COR Odyssey CLx imaging system and bands were quantified using LI-COR Image Studio data analysis software. […]

Assay [2] concerns the target T1, His-tagged human β-cat (134-668) (Homo sapiens, UniProt P35222).
T1 construct: His-tagged human β-cat (134-668); made in house; host or cells: E. coli BL21(DE3)
Description: SPR binding to β-cat. The method, then:
BL21(DE3) cells harboring pET-28 β-cat expression vector of His-tagged human β-cat (134-668) were cultured at 37° C. until OD600=0.6-0.8. The cells were then induced with 500 μM isopropyl-β-D-thiogalactopyranoside (IPTG) for 6-8 hr at 23° C. Cells were lysed by sonication in lysis buffer containing 20 mM Tris (pH 8.8), 250 mM NaCl, 2 mM DTT, 5% glycerol, 0.1% Triton X-100, and cOmplete protease inhibitor cocktail (EDTA free, Roche cat. #11873580001). The lysate was incubated with Ni-NTA agarose beads (Qiagen cat. #30210) at 4° C. for 1 hr, and the beads were then washed with lysis buffer containing 20 mM imidazole. Bound protein was eluted with buffer containing 20 mM Tris (pH 8.8), 250 mM NaCl, 0.5 mM tris(2-carboxyethyl)phosphine (TCEP), 5% glycerol, and 250 mM imidazole.
Surface plasmon resonance experiments were performed using a BIACORE T100 (GE Healthcare) on a CM5 series S sensor chip (GE Healthcare cat. #BR-1005-30). His-tagged β-cat (60 kDa, >90% pure based on SDS-PAGE) was immobilized using amine-coupling chemistry. The surfaces of flow cells one and two were activated with a 1:1 mixture of 0.1 M NHS (N-hydroxysuccinimide) and 0.1 M EDC (3-(N,N-dimethylamino) propyl-N-ethylcarbodiimide) at a flow rate of 5 μL/min. […]

Assay [3] deals with HCT116 cells. Description: Dose response viability of CRC cells (CellTiter-Glo). Type of assay: cell-based. The conditions noted are these: Homo sapiens, HCT-116, 24 hr. The method, then: (§1) HCT116, DLD-1, and SW480 cells were seeded as 5,000 cells in 100 μL growth medium per well in 96-well plates (Corning cat. #3903). The next day, 5-fold dilutions of the compounds in DMSO were added to the cells at a final concentration of 1% DMSO. After 24 hr incubation, the viability of the cells was determined with CellTiter-Glo luminescent cell viability reagent (Promega cat. #G7573) according to the manufacturer's protocol.
(§2) The average signal from DMSO treated wells was calculated for each plate, and the signal from each treatment well was normalized against the average DMSO signal from the respective plate. The normalized values were plotted against the concentrations tested using GraphPad Prism 5, and the EC50 values were determined through either three- or four-parameter nonlinear regression.
In general terms: In ATP-based viability assays light output follows the ATP content of the culture.

The subject of assay [4] is DLD-1 cells. The description is as above. Type of assay: cell-based. The conditions noted are these: Homo sapiens, 24 hr. The method, then:
as §1, §2

Assay [5] relates to SW480 cells. The description is as above. The conditions noted are these: Homo sapiens, 24 hr. Type of assay: cell-based. How it is done: as §1, §2
In assay [6] the test system is CRC948. Description: Viability of primary patient-derived colorectal cancer cell line. Type of assay: cell-based.
Assay [7] relates to HCT116 cells. The experiment in a line: Proliferation assay (CellTiter-Glo). Type of assay: cell-based. The settings on record: 10 μM daily. The method, then:
HCT 116 cells were seeded as 3,000 cells in 100 μL growth medium per well in 96-well plates (Corning cat. #3903) and allowed to attached overnight. Cells were then treated continuously with compounds at a final concentration of 10 μM, 0.1% DMSO, for 4 days with daily medium change. Cell proliferation each day was determined using CellTiter-Glo luminescent cell viability assay (Promega cat. #G7573) according to the manufacturer's protocol.

Assay [8] has as its system CRC1846. The experiment in a line: Viability of primary patient-derived colorectal cancer cell line. Type of assay: cell-based.

T1 sequence (P35222 134-668): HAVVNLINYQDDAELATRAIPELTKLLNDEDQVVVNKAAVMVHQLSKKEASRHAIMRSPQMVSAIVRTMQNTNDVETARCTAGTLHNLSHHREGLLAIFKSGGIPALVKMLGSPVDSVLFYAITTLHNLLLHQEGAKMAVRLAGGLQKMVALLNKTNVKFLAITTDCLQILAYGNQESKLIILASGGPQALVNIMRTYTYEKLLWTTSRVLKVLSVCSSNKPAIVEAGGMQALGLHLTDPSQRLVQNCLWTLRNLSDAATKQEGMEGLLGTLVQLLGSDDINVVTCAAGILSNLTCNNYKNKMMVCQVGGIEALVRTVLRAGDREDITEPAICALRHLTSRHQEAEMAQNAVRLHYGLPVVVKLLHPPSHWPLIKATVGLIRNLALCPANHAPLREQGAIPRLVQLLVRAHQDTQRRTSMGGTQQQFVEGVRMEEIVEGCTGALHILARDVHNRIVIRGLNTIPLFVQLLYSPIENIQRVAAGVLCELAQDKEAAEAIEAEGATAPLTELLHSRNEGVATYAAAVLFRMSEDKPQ

`CCc1ccc(OCc2nnc(SC3CCCC3=O)n2C(C)c2ccccc2)cc1` (stereo not drawn) [GB1874]: the “β-cat-ECAD interaction (co-IP)” value in assay [1] is “minimal effect on the β-cat-ECAD interaction”. The Kd (commonly the free concentration of one partner at which half of the binding sites on the other are occupied at equilibrium, for simple one-to-one binding) in assay [2] (SPR steady state, n=3, 25° C., read-out: dissociation constant KD) was 76 ± 13 µM. Moreover, the “Hill slope of the best fit curve” value in assay [2] (SPR steady-state binding curve) is given as “greater than 1”. In addition, the EC50 (in general, the concentration that produces a half-maximal response) turned out to be 45 µM in assay [3]; 28 µM in assay [4]; 24 µM in assay [5]; 17 µM in assay [6]; 17 µM in assay [8]. Further, the “growth of HCT116 cells” value in assay [7] was “effectively inhibited the growth of HCT116 cells”.
